# Literature values, collected in US20210161808A1, “Nasal Drug Delivery System of Brivaracetam or Salt Thereof” (Zenvision Pharma LLP, priority 2018, published 2021).
# Where two headings read alike, the source gives them in different places.
# Assays:
# [1] = target: synaptic vesicle protein 2A (SV2A) (Homo sapiens, UniProt Q7L0J3); details: in the brain
# synaptic vesicle protein 2A (SV2A), sequence (Q7L0J3 whole entry): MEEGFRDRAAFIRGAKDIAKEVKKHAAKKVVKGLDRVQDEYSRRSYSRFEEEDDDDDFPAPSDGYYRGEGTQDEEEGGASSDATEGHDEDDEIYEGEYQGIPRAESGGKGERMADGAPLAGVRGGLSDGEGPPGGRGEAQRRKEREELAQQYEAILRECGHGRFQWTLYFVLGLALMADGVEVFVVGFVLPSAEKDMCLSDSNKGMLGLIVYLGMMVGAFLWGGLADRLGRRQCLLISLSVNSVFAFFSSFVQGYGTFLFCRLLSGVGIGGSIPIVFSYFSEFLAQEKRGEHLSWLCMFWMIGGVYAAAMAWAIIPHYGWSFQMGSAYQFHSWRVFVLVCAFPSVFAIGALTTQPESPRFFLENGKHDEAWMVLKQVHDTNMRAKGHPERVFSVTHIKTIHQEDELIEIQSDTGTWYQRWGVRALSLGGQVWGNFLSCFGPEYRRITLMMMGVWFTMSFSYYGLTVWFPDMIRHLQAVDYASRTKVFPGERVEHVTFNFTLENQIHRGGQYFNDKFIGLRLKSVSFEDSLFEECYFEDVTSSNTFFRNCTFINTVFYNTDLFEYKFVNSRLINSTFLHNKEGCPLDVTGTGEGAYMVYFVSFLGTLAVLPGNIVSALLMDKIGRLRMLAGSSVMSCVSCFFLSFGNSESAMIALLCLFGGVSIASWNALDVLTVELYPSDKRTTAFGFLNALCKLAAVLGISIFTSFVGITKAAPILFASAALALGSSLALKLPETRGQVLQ
compound,measurement,setting,value
"CCC[C@@H]1CC(=O)N([C@@H](CC)C(N)=O)C1 [Brivaracetam, (2S)-2-[(4R)-2-oxo-4-propyltetrahydro-1H-pyrrol-1-yl] butanamide]",affinity for synaptic vesicle protein 2A (SV2A),[1],high and selective affinity
same,solubility,in acetone,freely soluble
same,solubility,in acetonitrile,freely soluble
same,solubility,"in buffer (pH 1.2, 4.5, and 7.4)",very soluble
same,solubility,in ethanol,very soluble
same,solubility,in glacial acetic acid,very soluble
same,solubility,in methanol,very soluble
same,solubility,in n-hexane,very slightly soluble
same,solubility,in toluene,soluble
same,solubility,in water,very soluble
